Data on nine compounds can be found in patent publication US8258178B2, “Agents for preventing attachment of barnacle consisting of organic solvent extracts of red alga Laurencia sp. and compounds isolated therefrom” (Central Research Institute of Electric Power Industry, priority 2007, dated 2012).

Data set [1] deals with cypris larvae of Amphibalanus amphitrite. As to the kind of experiment: whole plant or invertebrate. Format: in vivo. The note with it: for EC50: Amphibalanus amphitrite, 48 h, read-out: EC50 of attachment•metamorphosis of cypris larvae. As to the method:
(§1) Adult samples of Amphibalanus amphitrite collected from Lake Hamanako, Shizuoka-ken in the breeding season (May to November in Hamanakako) were subject to drying stimulus for about 12 hours (drying stimulus refers to taking out barnacles out of the breeding water and let them dry), and then they were put into a water bath, thereby allowing eggs to hatch into nauplius larvae (if the adults are not in a breeding season, they are subject to food satiation breeding for about two weeks at a water temperature of 20° C. to 25° C., and after subjecting to drying stimulus for about 12 hours, they are housed in a water bath to allow eggs to hatch into nauplius larvae). […] At 5th day of breeding, the nauplius larvae metamorphosed into cypris larvae, which were collected using light or the like and refrigerated (4° C.) for two days, and then used for attachment•metamorphosis inhibition tests.
(§2) Into a 24-well multi plate made of polystyrene (Corning, Inc.) was put an ethanol solution in which a methanol extract of red algae laurencia sp. of the present invention or the compound of the present invention was dissolved, and allowed to dry, followed by charging of 2 mL filtered seawater. Six individual cypris larvae of Amphibalanus amphitrite were put into each well and bred at 25° C. for two to five days, and the number of individuals that metamorphosed from cypris larvae into barnacle immatures while attaching to the plate surface, the number of individuals not attached thereto and still swimming as cypris larvae, and the number of dead individuals were counted under a stereoscopic microscope. The tests were conducted using four wells each for a same concentration of the compound of the present invention, and the tests were repeated three or more times. […] Furthermore, the concentration at which the ratio of the number of attaching•metamorphosing individuals to the number of all the subject individuals after 2 days is one-half in comparison with the case not having the compounds of the present invention, was represented by EC50. Concentrations (μg/ml) were represented by the value obtained by dividing the amount of the methanol extract of red algae laurencia sp. (μg) or the amount of the compound (μg) added per well by 2 mL of filtered seawater added per well.

A further data set in a line: in vivo. Format: in vivo. The note with it: Amphibalanus amphitrite (barnacle, cypris larvae), in vivo; concentration at which dead individuals after 5 days account for 50% of all individuals; read-out: LC50 (toxicity to larvae). How it is done:
as §1, §2

The conditions of data set [2]: Non-Patent Document 7; cited from earlier work.
For another data set, the system named is barnacle. The note with it: reported in Non-Patent Documents 1 and 2; cited from earlier work.
Where [3] appears, read: after 2 days, concentration at which ratio of attaching•metamorphosing individuals is one-half of the case without compound, 25° C., 24-well plate, 2 mL filtered seawater.

Each structure is given as a SMILES string. ≈ marks a conversion by molar mass, not a printed value. Like-named read-outs stand apart in the source and are kept apart here.

With `CC[C@@H]1[C@@H]2[C@H]3OC(C=C=CBr)C[C@H]3O[C@]2(O)[C@@H](Br)C[C@H]1Br` (stereo partly drawn) [Hachijojimallene A], in data set [1] (setting [3]), the “EC50 of attachment•metamorphosis of cypris larvae” value was found to be 0.15 µg/mL. Further, the “LC50 (toxicity to larvae)” value in data set [1] (concentration at which dead individuals after 5 days account for 50% of all individuals) is 9.8 µg/mL (≈ 20.1 µM).
As for `C#C/C=C/C[C@@H](OC(C)=O)[C@H]1C/C=C\C[C@H](Br)[C@@H](CC)O1` [Laurencin], in data set [1] (setting [3]), the “EC50 of attachment•metamorphosis of cypris larvae” value is 0.23 µg/mL. The toxicity to larvae result in data set [1] (at 100 μg/mL) is reported as “no toxicity at all”.
For the compound `CC(C)=CCC[C@@](C)(O)[C@@H](O)CC[C@](C)(O)[C@H]1CC[C@H]2O[C@@H]([C@]3(C)CC[C@@H](Br)C(C)(C)O3)CC[C@]2(C)O1` [Magireol A], the LC50 at 5 days in “in vivo” came to 14.4 µg/mL (≈ 24.4 µM). Also, the EC50 in data set [1] stood at 0.3 µg/mL (≈ 0.509 µM).
Turning to `CC/C(Br)=C\C=C\[C@@H](O)[C@H](Br)[C@@H]1O[C@@H](C=C=CBr)C[C@@H]1O` [Omaezallene], in the data set “in vivo”, the LC50 at 5 days came out at 3.4 µg/mL (≈ 6.98 µM). Further, the EC50 in data set [1] (setting [3]) was determined as 0.22 µg/mL.
With `CC(C)(O)[C@H]1CC[C@](C)([C@@H](O)CC[C@](C)(O)[C@H]2CC[C@H]3O[C@@H]([C@]4(C)CC[C@@H](Br)C(C)(C)O4)CC[C@]3(C)O2)O1` [Thyrsiferol], in the data set “in vivo”, the median lethal concentration (LC50) at 5 days was 2.5 µg/mL (≈ 4.13 µM). Further, the EC50 in data set [1] amounted to 0.11 µg/mL (≈ 0.182 µM). In data set [2], the cytotoxicity result is on record as “known to have cytotoxicity”.
In the case of `C=C1C[C@H](O)[C@H](Br)C(C)(C)[C@]12CC=C(C)CC2` [deschloroelatol], the “barnacle attachment inhibitory activity” value in the data set on barnacle is reported as “have a barnacle attachment inhibitory activity”.
Regarding `C=C1C[C@H](O)[C@H](Br)C(C)(C)[C@@]12CCC(C)=C(Cl)C2` [elatol], in the data set with barnacle, the “barnacle attachment inhibitory activity” value was “have a barnacle attachment inhibitory activity”.
In the case of `C=C1[C@@H](C)CC[C@@]1(C)c1cc(Br)c(C)cc1O` [isolaurinterol], in the data set with barnacle, the “barnacle attachment inhibitory activity” value is “possess a barnacle attachment inhibitory activity”.
For `Cc1cc(O)c([C@]2(C)CC[C@@H]3C[C@@]32C)cc1Br` [laurinterol], in the data set on barnacle, the “barnacle attachment inhibitory activity” value was “possess a barnacle attachment inhibitory activity”.
